Assay: Anion binding constants (Ka) by fluorescence quenching / UV-vis absorbance titration, fluoride
Conditions: dichloromethane, tetrabutylammonium salt
Description: (§1) The conclusion that 1 binds fluoride anion in dichloromethane solution was further supported by mass spectrometric analyses and titration experiments made using UV-visible absorption and fluorescence emission methods (Tables 1 and 2). The latter studies, which provided Ka values (Tables 1 and 2), were complemented by molar ratio analyses (Job plots) with 1:1 binding stoichiometries observed in all cases.
(§2) Nonetheless, even with these control systems the addition of tetrabutylammonium salts of various anions (F^−, Cl^− and H2PO4^−), gave rise to results that were quite interesting. […] Such effects can be rationalized in terms of the electron withdrawing nature of the two carbonyl groups, which serve to pull the electrons from the pyrrole units and thus act to increase the acidity of the pyrrolic NH protons. As a result, hydrogen bonding interactions with F^− are favored. In the particular case of inorganic phosphate, we speculate that the two carbonyl groups may also be involved in binding, stabilizing the complex via ancillary hydrogen bonding interactions involving the two HOP-phosphate protons.
In the case of c1ccc2nccnc2c1 [compound 11, quinoxaline, reference compound], the “change in the absorbance or emission spectra on addition of F^−” value is reported as “did not induce any significant change in the absorbance or emission spectra”.

Same assay, conditions: dichloromethane; 1 by fluorescence quenching (λex 412 nm), 10 by UV-vis absorbance titration at 341 nm; errors ± 10%, average of 2-4 trials
For C[Si](C)(C)CCOCn1cccc1-c1nc2ccccc2nc1-c1ccc[nH]1 [compound 12], the “Anion binding constant (Ka), F^−” value was 2,300 M^−1.
For c1c[nH]c(-c2nc3ccccc3nc2-c2ccc[nH]2)c1 [compound 1, 2,3-dipyrrylquinoxaline], the “Anion binding constant (Ka), F^−” value was 18,200 M^−1.
In the case of O=[N+]([O-])c1ccc2nc(-c3ccc[nH]3)c(-c3ccc[nH]3)nc2c1 [compound 7, 6-nitro-2,3-dipyrrylquinoxaline], the “Anion binding constant (Ka), F^−” value is reported as 118,000 M^−1.
With O=[N+]([O-])c1cc2nc(-c3ccc[nH]3)c(-c3ccc[nH]3)nc2cc1[N+](=O)[O-] [compound 3, 2,3-dipyrrol-2′-yl-6,7-dinitroquinoxaline] the “Anion binding constant (Ka), F^−” value was 117,000 M^−1.
In the case of COc1cc2nc(-c3ccc[nH]3)c(-c3ccc[nH]3)nc2cc1OC [compound 2, 2,3-dipyrrol-2′-yl-6,7-dimethoxyquinoxaline], the “Anion binding constant (Ka), F^−” value is reported as 2,300 M^−1.

Same assay, conditions: in dichloromethane
For c1c[nH]c(-c2nc3ccccc3nc2-c2ccc[nH]2)c1 [compound 1, 2,3-dipyrrylquinoxaline], the “affinity constant (Ka) for F^− binding, rounded” value (from here on “affinity constant (Ka)”) was 20000 M⁻¹.
With O=[N+]([O-])c1ccc2nc(-c3ccc[nH]3)c(-c3ccc[nH]3)nc2c1 [compound 7, 6-nitro-2,3-dipyrrylquinoxaline] the “affinity constant (Ka)” value was ~10^5 M^−1.
In the case of O=[N+]([O-])c1cc2nc(-c3ccc[nH]3)c(-c3ccc[nH]3)nc2cc1[N+](=O)[O-] [compound 3, 2,3-dipyrrol-2′-yl-6,7-dinitroquinoxaline], the “affinity constant (Ka)” value is reported as ~10^5 M^−1.
For COc1cc2nc(-c3ccc[nH]3)c(-c3ccc[nH]3)nc2cc1OC [compound 2, 2,3-dipyrrol-2′-yl-6,7-dimethoxyquinoxaline], the “affinity constant (Ka)” value was 2000 M⁻¹.

Assay: Anion binding constants (Ka) by fluorescence quenching / UV-vis absorbance titration, chloride
Conditions: dichloromethane, tetrabutylammonium salt
Description: as §1, §2
With c1ccc2nccnc2c1 [compound 11, quinoxaline, reference compound] the “change in the absorbance or emission spectra on addition of Cl^−” value was “did not induce any significant change in the absorbance or emission spectra”.

Same assay, conditions: dichloromethane; 1 by fluorescence quenching, 10 by UV-vis absorbance titration at 341 nm; errors ± 10%, average of 2-4 trials
With C[Si](C)(C)CCOCn1cccc1-c1nc2ccccc2nc1-c1ccc[nH]1 [compound 12] the “Anion binding constant (Ka), Cl^−” value was less than 50 M⁻¹.
For c1c[nH]c(-c2nc3ccccc3nc2-c2ccc[nH]2)c1 [compound 1, 2,3-dipyrrylquinoxaline], the “Anion binding constant (Ka), Cl^−” value was 50 M⁻¹.
With O=[N+]([O-])c1ccc2nc(-c3ccc[nH]3)c(-c3ccc[nH]3)nc2c1 [compound 7, 6-nitro-2,3-dipyrrylquinoxaline] the “Anion binding constant (Ka), Cl^−” value was 45 M⁻¹.
In the case of O=[N+]([O-])c1cc2nc(-c3ccc[nH]3)c(-c3ccc[nH]3)nc2cc1[N+](=O)[O-] [compound 3, 2,3-dipyrrol-2′-yl-6,7-dinitroquinoxaline], the “Anion binding constant (Ka), Cl^−” value is reported as 45 M⁻¹.
With COc1cc2nc(-c3ccc[nH]3)c(-c3ccc[nH]3)nc2cc1OC [compound 2, 2,3-dipyrrol-2′-yl-6,7-dimethoxyquinoxaline] the “Anion binding constant (Ka), Cl^−” value was less than 50 M⁻¹.

Assay: Anion binding constants (Ka) by fluorescence quenching / UV-vis absorbance titration, dihydrogen phosphate
Conditions: dichloromethane, tetrabutylammonium salt
Description: as §1, §2
In the case of c1ccc2nccnc2c1 [compound 11, quinoxaline, reference compound], the “change in the absorbance or emission spectra on addition of H2PO4^−” value is reported as “did not induce any significant change in the absorbance or emission spectra”.

Same assay, conditions: dichloromethane; 1 by fluorescence quenching, 10 by UV-vis absorbance titration at 341 nm; errors ± 10%, average of 2-4 trials
For C[Si](C)(C)CCOCn1cccc1-c1nc2ccccc2nc1-c1ccc[nH]1 [compound 12], the “Anion binding constant (Ka), H2PO4^−” value was less than 50 M⁻¹.
For c1c[nH]c(-c2nc3ccccc3nc2-c2ccc[nH]2)c1 [compound 1, 2,3-dipyrrylquinoxaline], the “Anion binding constant (Ka), H2PO4^−” value was 60 M⁻¹.
For O=[N+]([O-])c1ccc2nc(-c3ccc[nH]3)c(-c3ccc[nH]3)nc2c1 [compound 7, 6-nitro-2,3-dipyrrylquinoxaline], the “Anion binding constant (Ka), H2PO4^−” value was 80 M⁻¹.
In the case of O=[N+]([O-])c1cc2nc(-c3ccc[nH]3)c(-c3ccc[nH]3)nc2cc1[N+](=O)[O-] [compound 3, 2,3-dipyrrol-2′-yl-6,7-dinitroquinoxaline], the “Anion binding constant (Ka), H2PO4^−” value is reported as 55 M⁻¹.
In the case of COc1cc2nc(-c3ccc[nH]3)c(-c3ccc[nH]3)nc2cc1OC [compound 2, 2,3-dipyrrol-2′-yl-6,7-dimethoxyquinoxaline], the “Anion binding constant (Ka), H2PO4^−” value is reported as less than 50 M⁻¹.

Assay: Colorimetric assay: visual color change in solution on addition of fluoride anion
Conditions: in solution (dichloromethane), naked eye
Description: as §2
Unfortunately, the fluorescence quantum yield of 10 is low.
Using 2,3-dipyrrol-2′yl-5,6dicyanopyrazine (preparation is described in Example 30) as a sensing compound, a vivid yellow-to-red color change in solution observed upon addition of fluoride ion verifies that the quinoxaline backbone is not essential for chemical sensing in this family of compounds. This is consistent with the theory that changes in orbital overlap between the pi systems of conjugated bridging unit and the pyrrole rings account for the sensitivity of the sensing elements to analyte species.
In order to understand more fully the above results, studies were performed to map out the mode of fluoride anion binding. Firstly, it was verified that two pyrrolic nitrogens are required to observe the anion-induced color change. Toward this end, the mono protected 2,3-dipyrrylquinoxaline 12 was prepared by reacting 0.8 equivalents of SEMCl with one equivalent of 2,3-dipyrrylquinoxaline.
With C[Si](C)(C)CCOCn1cccc1-c1nc2ccccc2nc1-c1ccc[nH]1 [compound 12] the “fluoride anion-induced color change” value was “no color change”.
With c1c[nH]c(-c2nc3ccccc3nc2-c2ccc[nH]2)c1 [compound 1, 2,3-dipyrrylquinoxaline] the “fluoride anion-induced color change” value was “yellow to orange”.
With O=[N+]([O-])c1ccc2nc(-c3ccc[nH]3)c(-c3ccc[nH]3)nc2c1 [compound 7, 6-nitro-2,3-dipyrrylquinoxaline] the “fluoride anion-induced color change” value was “yellow to purple”.
With COc1cc2nc(-c3ccc[nH]3)c(-c3ccc[nH]3)nc2cc1OC [compound 2, 2,3-dipyrrol-2′-yl-6,7-dimethoxyquinoxaline] the “fluoride anion-induced color change” value was “hardly “works” at all”.
In the case of N#Cc1nc(-c2ccc[nH]2)c(-c2ccc[nH]2)nc1C#N [2,3-dipyrrol-2′yl-5,6dicyanopyrazine, 2,3-dipyrrol-2′yl-5,6-dicyanopyrazine], the “fluoride anion-induced color change” value is reported as “yellow-to-red”.

Reference: patent publication US6482949B1, “Colormetric sensor compositions and methods” (priority 1999, dated 2002)
